Results as given in the supplement of paper PMC10307832.

Key:
Experiment in all cases: relative viability (nuclei count vs DMSO), 5 days (fraction); higher = more cells survive
[1] = compound: C1COCCN1C2=NC(=NC3=C2OC4=C3C=CC=N4)C5=CC(=CC=C5)NC(=O)C6=CN=C(C=C6)N + O=C(CCCCCCC(=O)Nc1ccccc1)NO [Vorinostat] (partner 1 µM)
Method in brief: (§1)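 Medians of duplicate plates are given as relative viability. That measure is the nuclei count in treated wells divided by the count in vehicle wells. Counts were taken on 4× images of lung cancer cell lines in 1536-well plates, 5 days after pin-tool dosing the day after seeding with one drug alone or a fixed anchor-drug dose plus five library-drug doses (not always all listed) in √10 steps.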

Entinostat + Olaparib = compound: Nc1ccccc1NC(=O)c1ccc(CNC(=O)OCc2cccnc2)cc1 [Entinostat] + O=C(c1cc(Cc2n[nH]c(=O)c3ccccc23)ccc1F)N1CCN(C(=O)C2CC2)CC1 [Olaparib] (partner 8 µM)
Method in brief: as §1

[2] = compound: C1COCCN1C2=NC(=NC3=C2OC4=C3C=CC=N4)C5=CC(=CC=C5)NC(=O)C6=CN=C(C=C6)N + C[C@@H](Oc1cc(-c2cnn(C3CCNCC3)c2)cnc1N)c1c(Cl)ccc(F)c1Cl [Crizotinib] (partner 1 µM)
Method in brief: as §1

Entinostat + Navitoclax = compound: Nc1ccccc1NC(=O)c1ccc(CNC(=O)OCc2cccnc2)cc1 [Entinostat] + CC1(C)CCC(c2ccc(Cl)cc2)=C(CN2CCN(c3ccc(C(=O)NS(=O)(=O)c4ccc(N[C@H](CCN5CCOCC5)CSc5ccccc5)c(S(=O)(=O)C(F)(F)F)c4)cc3)CC2)C1 [Navitoclax] (partner 0.5 µM)
Method in brief: as §1

Row | Cell Line | relative viability ([1]; first compound 0.02 µM) | relative viability ([1]; first compound 0.06325 µM) | relative viability ([1]; first compound 0.2 µM) | relative viability ([1]; first compound 0.6325 µM) | relative viability ([1]; first compound 2 µM) | relative viability (Entinostat + Olaparib; first compound 0.02 µM) | relative viability (Entinostat + Olaparib; first compound 0.06325 µM) | relative viability (Entinostat + Olaparib; first compound 0.2 µM) | relative viability (Entinostat + Olaparib; first compound 0.6325 µM) | relative viability (Entinostat + Olaparib; first compound 2 µM) | relative viability ([2]; first compound 0.02 µM) | relative viability ([2]; first compound 0.06325 µM) | relative viability ([2]; first compound 0.2 µM) | relative viability ([2]; first compound 0.6325 µM) | relative viability ([2]; first compound 2 µM) | relative viability (Entinostat + Navitoclax; first compound 0.02 µM) | relative viability (Entinostat + Navitoclax; first compound 0.06325 µM) | relative viability (Entinostat + Navitoclax; first compound 0.2 µM) | relative viability (Entinostat + Navitoclax; first compound 0.6325 µM) | relative viability (Entinostat + Navitoclax; first compound 2 µM)
1 | NCI-H2342 | 0.821 | 0.876 | 0.849 | 0.756 | 0.627 | 0.401 | 0.477 | 0.447 | 0.356 | 0.308 | – | – | – | – | – | – | – | – | – | –
2 | SW 1573 | 0.737 | 0.953 | 0.705 | 0.552 | 0.451 | 0.415 | 0.563 | 0.582 | 0.468 | 0.261 | 0.89 | 0.812 | 0.721 | 0.743 | 0.659 | 0.933 | 1.35 | 1.07 | 0.996 | 0.628
3 | NCI-H2087 | 0.611 | 0.911 | 0.842 | 0.724 | 0.199 | 0.498 | 0.554 | 0.511 | 0.329 | 0.206 | 0.979 | 0.936 | 0.925 | 0.892 | 0.531 | 0.785 | 0.853 | 0.724 | 0.586 | 0.337
4 | NCI-H520 | 0.74 | 0.747 | 0.77 | 0.699 | 0.451 | 0.336 | 0.346 | 0.272 | 0.237 | 0.149 | 0.925 | 0.775 | 0.803 | 0.756 | 0.443 | 1.02 | 1.02 | 1.21 | 0.916 | 0.456
5 | Calu-6 | – | – | – | – | – | 0.603 | 0.539 | 0.637 | 0.381 | 0.323 | 1.1 | 0.876 | 0.758 | 0.822 | 0.454 | 0.761 | 0.859 | 0.774 | 0.524 | 0.308
6 | SK-LU-1 | 0.741 | 0.742 | 0.736 | 0.647 | 0.482 | 0.469 | 0.497 | 0.394 | 0.313 | 0.288 | 0.947 | 0.992 | 0.915 | 1.1 | 0.502 | 0.633 | 0.76 | 1.1 | 0.37 | 0.368
7 | LCLC-97TM1 | 0.804 | 0.862 | 0.751 | 0.755 | 0.43 | 0.476 | 0.402 | 0.41 | 0.32 | 0.364 | – | 0.407 | 0.321 | 0.341 | 0.308 | 0.341 | 0.358 | 0.473 | 0.308 | 0.272
8 | HCC-15 | 0.859 | 0.929 | 0.881 | 0.792 | 0.575 | 0.684 | 0.617 | 0.56 | 0.377 | 0.201 | 0.824 | 0.938 | 0.843 | 0.819 | 0.545 | 0.753 | 0.699 | 0.58 | 0.302 | 0.196
9 | NCI-H522 | 0.831 | 0.844 | 0.925 | 0.865 | 0.798 | 0.58 | 0.713 | 0.582 | 0.686 | 0.494 | – | – | – | – | – | – | – | – | – | –
